Test results published in patent US12378248B2 (The United States of America, as represented by the …, priority 2018, dated 2025).
Substitutions are numbered along the chain they refer to.

Legend:
[1] = Plasma protein binding at 10 μM; assay type: in vitro ADME, rat; conditions: unbound percent ± standard deviation
Description: (§1) Plasma protein binding in human plasma, mouse plasma, and rat plasma was determined. Verapamil and warfarin served as positive controls. The results are expressed as unbound percent±standard deviation.

[2] = target: T1, mA3AR (Mus musculus, UniProt Q61618); test: Guanine nucleotide ([35S]GTPγS) binding assay; assay type: biochemical; conditions: effect of 10 μM test compound as % of 10 μM 16
T1 sequence (Q61618 1-319): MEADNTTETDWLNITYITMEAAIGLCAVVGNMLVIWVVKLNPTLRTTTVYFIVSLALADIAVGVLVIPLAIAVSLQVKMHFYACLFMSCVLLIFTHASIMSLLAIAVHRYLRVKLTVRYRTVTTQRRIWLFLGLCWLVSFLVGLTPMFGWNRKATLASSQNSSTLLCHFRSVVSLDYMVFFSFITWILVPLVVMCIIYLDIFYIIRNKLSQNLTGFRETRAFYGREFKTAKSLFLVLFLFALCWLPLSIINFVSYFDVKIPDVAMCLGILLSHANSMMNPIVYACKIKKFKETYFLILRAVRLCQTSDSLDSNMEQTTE
Description: (§2) cLogP was calculated using ChemDraw Professional, v. 16.0. Binding selectivity for mA1Ar is expressed in terms of fold, compared to mA3AR (Data from Table 1).

[3] = test system: wild-type C57BL/6J mice; test: Hypothermia (Tb by telemetry) after ip dosing; assay type: in vivo, mouse; conditions: for Tb (° C.): average from dosing to 60 min, mean±SD
Description: (§3) Compounds were dosed ip. Tb and activity were measured by telemetry and the averages from dosing to 60 min were calculated. […] Data are for the highest dose used and are mean±SD from 3 to 22 mice/group (usually 5-7). P values are unpaired t-Test vs vehicle-treated controls assayed simultaneously. Vehicle data are mean±SD from all (n=83) vehicle treated mice.

[4] = target: T2, hA3AR (Homo sapiens, UniProt P0DMS8); test: Radioligand binding in membranes of CHO cells expressing hA3AR; conditions: read-out: A3AR % inhibition or Ki; for Ki: (h)
T2 construct: expressed in transfected cells; host or cells: CHO
T2 sequence (P0DMS8 1-318): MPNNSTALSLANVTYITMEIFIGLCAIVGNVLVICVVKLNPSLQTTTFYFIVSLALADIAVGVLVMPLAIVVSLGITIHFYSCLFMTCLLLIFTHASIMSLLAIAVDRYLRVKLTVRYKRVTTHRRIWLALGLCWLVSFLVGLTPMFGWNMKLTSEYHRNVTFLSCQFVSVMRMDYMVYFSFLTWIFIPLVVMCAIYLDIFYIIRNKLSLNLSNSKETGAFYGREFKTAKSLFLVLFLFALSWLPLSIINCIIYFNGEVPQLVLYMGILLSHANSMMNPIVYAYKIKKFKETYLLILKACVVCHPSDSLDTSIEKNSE

[5] = Plasma protein binding at 10 μM; assay type: in vitro ADME, human; conditions: unbound percent ± standard deviation
Description: as §1

[6] = test system: wild-type C57BL/6J mice; test: Locomotor activity by telemetry after ip dosing; assay type: in vivo, mouse; conditions: average from dosing to 60 min, mean±SD
Description: as §3

[7] = Plasma protein binding at 10 μM; assay type: in vitro ADME, mouse; conditions: unbound percent ± standard deviation
Description: as §1

[8] = target: T3, hA1AR (Homo sapiens, UniProt P30542); test: Radioligand binding in membranes of CHO cells expressing hA1AR, [3H]N6-R-phenylisopropyladenosine; conditions: (h); Ki; read-out: A1AR % inhibition or Ki
T3 construct: expressed in transfected cells; host or cells: CHO
T3 sequence (P30542 1-326): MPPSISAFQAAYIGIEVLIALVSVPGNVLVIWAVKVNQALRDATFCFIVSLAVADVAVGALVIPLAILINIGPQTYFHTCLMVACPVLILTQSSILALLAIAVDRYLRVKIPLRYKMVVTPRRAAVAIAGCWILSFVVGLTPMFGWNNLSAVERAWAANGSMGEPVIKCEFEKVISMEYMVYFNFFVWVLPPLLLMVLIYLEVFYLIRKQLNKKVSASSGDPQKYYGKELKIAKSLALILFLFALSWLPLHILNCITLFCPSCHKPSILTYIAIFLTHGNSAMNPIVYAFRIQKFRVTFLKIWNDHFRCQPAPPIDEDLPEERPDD

[9] = test system: off-target receptors (PDSP); test: Off-target interactions determined by the PDSP, whole screen; assay type: binding, human; conditions: no off-target interaction listed
[10] = target: T4, hA2AAR (Homo sapiens, UniProt P29274); test: Radioligand binding in membranes of HEK293 cells expressing hA2AAR; conditions: read-out: A2AAR % inhibition
T4 construct: expressed in transfected cells; host or cells: HEK293
T4 sequence (P29274 whole entry): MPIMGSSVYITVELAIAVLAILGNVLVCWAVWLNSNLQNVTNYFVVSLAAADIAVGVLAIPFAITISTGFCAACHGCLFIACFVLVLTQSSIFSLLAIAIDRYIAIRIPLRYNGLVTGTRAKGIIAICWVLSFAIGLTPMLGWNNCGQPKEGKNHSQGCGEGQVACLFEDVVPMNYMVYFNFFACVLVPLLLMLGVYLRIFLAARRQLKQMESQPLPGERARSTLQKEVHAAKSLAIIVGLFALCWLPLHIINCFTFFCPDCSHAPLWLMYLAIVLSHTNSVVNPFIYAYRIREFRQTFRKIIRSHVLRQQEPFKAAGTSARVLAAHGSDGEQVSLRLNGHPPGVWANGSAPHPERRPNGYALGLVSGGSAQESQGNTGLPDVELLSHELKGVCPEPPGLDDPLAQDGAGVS

[11] = target: T5, rA1AR (Rattus norvegicus, UniProt P25099); test: Adenosine receptor binding, rA1AR; conditions: (r), read-out: A1AR % inhibition or Ki (converted)
T5 sequence (P25099 1-326): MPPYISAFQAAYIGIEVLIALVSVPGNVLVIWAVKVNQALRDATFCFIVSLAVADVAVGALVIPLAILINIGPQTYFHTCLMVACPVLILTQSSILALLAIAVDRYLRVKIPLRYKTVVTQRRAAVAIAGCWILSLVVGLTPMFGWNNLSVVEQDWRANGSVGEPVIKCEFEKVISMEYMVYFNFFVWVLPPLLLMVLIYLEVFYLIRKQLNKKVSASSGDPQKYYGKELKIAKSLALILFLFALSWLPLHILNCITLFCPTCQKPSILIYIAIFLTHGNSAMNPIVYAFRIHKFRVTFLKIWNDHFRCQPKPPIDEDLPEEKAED

[12] = target: T6, mA1AR (Mus musculus, UniProt Q60612); test: Guanine nucleotide ([35S]GTPγS) binding assay; assay type: biochemical
T6 sequence (Q60612 1-326): T5 sequence (P25099 1-326) with V151E, D155A, R157I, D316E, L319I, E325D
Description: as §2

[13] = target: mA2AAR (Mus musculus, UniProt Q60613); test: Adenosine receptor binding, mA2AAR; conditions: read-out: A2AAR % inhibition (converted)
Sequence of mA2AAR (Q60613 whole entry): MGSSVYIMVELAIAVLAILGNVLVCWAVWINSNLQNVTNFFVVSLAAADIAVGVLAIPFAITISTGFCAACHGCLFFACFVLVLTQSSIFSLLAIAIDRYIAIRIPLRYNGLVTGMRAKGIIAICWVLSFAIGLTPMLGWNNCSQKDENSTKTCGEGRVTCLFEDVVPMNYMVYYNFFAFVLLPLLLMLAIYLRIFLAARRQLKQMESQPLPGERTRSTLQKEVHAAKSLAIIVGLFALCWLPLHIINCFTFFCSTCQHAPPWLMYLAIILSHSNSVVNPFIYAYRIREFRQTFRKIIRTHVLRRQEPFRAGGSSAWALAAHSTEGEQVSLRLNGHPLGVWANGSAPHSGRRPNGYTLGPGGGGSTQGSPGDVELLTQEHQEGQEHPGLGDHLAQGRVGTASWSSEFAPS

[14] = target: T1, mA3AR; test: Adenosine receptor binding, mA3AR
[15] = target: T6, mA1AR; test: Adenosine receptor binding, mA1AR; conditions: for Ki: (m), read-out: A1AR % inhibition or Ki (converted)
[16] = target: sigma receptor σ2 (UniProt Q5BJF2); test: Off-target interaction determined by the PDSP; assay type: binding, human; conditions: read-out: Off-target, receptor (h, unless noted) (Ki, μM): σ2
[17] = target: dopamine transporter (DAT) (Homo sapiens, UniProt Q01959); test: Off-target interaction determined by the PDSP; assay type: binding; conditions: read-out: Off-target, receptor (h, unless noted) (Ki, μM): DAT
Sequence of dopamine transporter (DAT) (Q01959 whole entry): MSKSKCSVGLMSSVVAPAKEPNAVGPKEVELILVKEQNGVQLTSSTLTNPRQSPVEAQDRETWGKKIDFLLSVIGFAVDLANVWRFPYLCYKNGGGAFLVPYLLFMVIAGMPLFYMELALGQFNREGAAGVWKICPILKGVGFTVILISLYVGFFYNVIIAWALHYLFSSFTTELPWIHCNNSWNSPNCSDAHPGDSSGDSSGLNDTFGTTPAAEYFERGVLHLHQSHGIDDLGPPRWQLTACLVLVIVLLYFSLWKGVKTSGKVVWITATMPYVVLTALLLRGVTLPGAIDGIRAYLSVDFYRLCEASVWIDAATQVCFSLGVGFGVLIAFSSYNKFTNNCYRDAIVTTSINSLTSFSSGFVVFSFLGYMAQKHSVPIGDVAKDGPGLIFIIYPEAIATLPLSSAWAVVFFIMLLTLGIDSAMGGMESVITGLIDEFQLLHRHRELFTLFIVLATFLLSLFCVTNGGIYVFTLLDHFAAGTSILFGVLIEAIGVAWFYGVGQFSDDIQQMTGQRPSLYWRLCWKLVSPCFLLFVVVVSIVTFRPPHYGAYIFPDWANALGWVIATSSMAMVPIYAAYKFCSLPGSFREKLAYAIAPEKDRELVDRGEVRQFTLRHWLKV

[18] = target: serotonin receptor 5HT2B (Homo sapiens, UniProt P41595); test: Off-target interaction determined by the PDSP; assay type: binding; conditions: read-out: Off-target, receptor (h, unless noted) (Ki, μM): 5HT2B
Sequence of serotonin receptor 5HT2B (P41595 whole entry): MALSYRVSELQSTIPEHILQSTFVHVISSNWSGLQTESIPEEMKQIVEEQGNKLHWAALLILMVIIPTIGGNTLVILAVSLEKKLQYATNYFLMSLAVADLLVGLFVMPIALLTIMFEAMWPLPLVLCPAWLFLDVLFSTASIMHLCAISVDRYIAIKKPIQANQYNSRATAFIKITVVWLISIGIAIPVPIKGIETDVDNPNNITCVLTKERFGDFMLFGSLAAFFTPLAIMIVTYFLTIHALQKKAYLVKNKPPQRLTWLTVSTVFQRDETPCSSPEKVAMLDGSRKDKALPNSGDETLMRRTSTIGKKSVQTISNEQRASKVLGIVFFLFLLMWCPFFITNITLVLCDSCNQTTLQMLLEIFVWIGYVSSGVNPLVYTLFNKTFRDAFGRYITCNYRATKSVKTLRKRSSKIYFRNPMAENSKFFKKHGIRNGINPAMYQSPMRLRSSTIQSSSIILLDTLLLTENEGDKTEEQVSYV

[19] = target: T7, serotonin receptor 5HT2C (Homo sapiens, UniProt P28335); test: Off-target interaction determined by the PDSP; assay type: binding; conditions: read-out: Off-target, receptor (h, unless noted) (Ki, μM): 5HT2C
T7 sequence (P28335 33-458): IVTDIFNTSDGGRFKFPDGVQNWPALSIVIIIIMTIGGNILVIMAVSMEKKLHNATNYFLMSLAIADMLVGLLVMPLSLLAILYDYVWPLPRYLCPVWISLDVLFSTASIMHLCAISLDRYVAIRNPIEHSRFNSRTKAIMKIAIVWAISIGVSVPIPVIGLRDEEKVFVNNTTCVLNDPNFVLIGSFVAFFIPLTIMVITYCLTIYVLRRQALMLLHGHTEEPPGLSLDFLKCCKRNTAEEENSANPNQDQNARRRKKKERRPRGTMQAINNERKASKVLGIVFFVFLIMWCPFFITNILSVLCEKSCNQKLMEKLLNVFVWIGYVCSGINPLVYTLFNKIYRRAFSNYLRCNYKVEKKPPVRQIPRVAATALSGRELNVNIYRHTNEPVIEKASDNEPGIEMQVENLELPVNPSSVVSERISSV

[20] = test system: mice; test: Tail suspension test, immobility time; assay type: in vivo, mouse; conditions: 3, 10 or 20 mg/kg i.p.
Description: 1 hour after administration of compounds, the mice were individually suspended by their tails for 6 minutes, and the average amount of time the mice were immobile was determined. […]

[21] = Stability in simulated gastric fluid; assay type: physicochemical; conditions: pH 1.60, 37° C., after 120 min

Off-target, receptor (h, unless noted) [9]	SMILES	rat, % free [1]	Emax at 10 µM [2]	Ki [4]	human, % free [5]	mouse, % free [7]	Ki [8]	inhibition at 10 µM [10]	further results
none	CNC(=O)[C@H]1O[C@@H](n2cnc3c(N)ncnc32)[C@H](O)[C@@H]1O [Compound 15, reference compound]	–	–	0.0244 µM	–	–	0.0367 µM	–	Ki ([10]; (h), values without % sign (Ki)): 0.466 ± 0.095 µM; Ki [11]: 0.084 µM
none	Nc1nc(Cl)nc2c1ncn2[C@H]1[C@H](O)[C@H](O)[C@]2(CO)C[C@H]12 [Compound 21]	–	–	–	–	–	–	–	Ki [11]: 0.273 µM
none	OC[C@@]12C[C@@H]1[C@@H](n1cnc3c(N[C@H]4C[C@H]5CC[C@@H]4C5)nc(Cl)cc31)[C@H](O)[C@@H]2O [Compound 30, (1R,2R,3S,4R,5S)-4-(4-(((1R,2S,4S)-Bicyclo[2.2.1]heptan-2-yl)amino)-6-chloro-1H-imidazo[4,5-c]pyridin-1-yl)-1-(hydroxymethyl)bicyclo[3.1.0]hexane-2,3-diol]	–	–	0.145 ± 0.074 µM	–	–	0.24 ± 0.019 µM	29 ± 13%	–

Further lines, the molecule ahead of its results:

SMILES	Off-target, receptor (h, unless noted) [9]	rat, % free [1]	Emax at 10 µM [2]	Ki [4]	human, % free [5]	mouse, % free [7]	Ki [8]	inhibition at 10 µM [10]	further results
OC[C@H]1O[C@@H](n2cnc3c(NC(C4CCC4)C4CCC4)ncnc32)[C@H](O)C1O (stereo in doubt) [Compound 9, (2R,3R,4R,5R)-2-(6-((Dicyclobutylmethyl)amino)-9H-purin-9-yl)-5-(hydroxymethyl)tetrahydrofuran-3,4-diol]	–	14.6 ± 0.01%	70 ± 9%	10.6 µM	6.05 ± 1.60%	20.6 ± 1.2%	–	–	ARs causing hypothermia ([3]; 3 mg/kg ip, WT and AR-KO mice (FIG. 2)): A1AR selective; Tb (° C.) ([3]; 3 mg/kg ip): 33.0 ± 0.7 °C; Activity (counts) ([6]; 3 mg/kg ip): 6.6 ± 2.3 counts
O[C@H]1[C@H](n2cnc3c(N[C@H]4C[C@H]5CC[C@@H]4C5)nc(Cl)nc32)[C@H]2C[C@@]2(CCl)[C@H]1O [Compound 31, (1S,2R,3S,4R,5S)-4-(6-(((1R,2S,4S)-Bicyclo[2.2.1]heptan-2-yl)amino)-2-chloro-9H-purin-9-yl)-1-(chloromethyl)bicyclo[3.1.0]hexane-2,3-diol]	none	2.53 ± 0.45%	50 ± 11%	0.456 ± 0.201 µM	4.04 ± 0.60%	2.95 ± 0.84%	0.0448 ± 0.0013 µM	54 ± 8%	Emax at 10 µM [12]: 123 ± 16%; inhibition at 10 µM [13]: 15%; Tb (° C.) ([3]; 3 mg/kg ip): 36.6 ± 0.5 °C; Ki ([14]; (m), Ki, read-out: A3AR % inhibition or Ki (converted)): 0.503 µM; Ki [15]: 0.00186 µM; Binding selectivity for mA1AR ([15]; compared to mA3AR): (270) fold; Activity (counts) ([6]; 3 mg/kg ip): 16.8 ± 3.6 counts
NC(=O)c1ncn([C@H]2[C@H](O)[C@H](O)[C@]3(CO)C[C@H]23)n1 [Compound 40, 1-((1S,2R,3S,4R,5R)-3,4-Dihydroxy-5-(hydroxymethyl)bicyclo[3.1.0]hexan-2-yl)-1H-1,2,4-triazole-3-carboxamide]	–	> 80%	31 ± 3%	–	> 80%	> 80%	0.495 ± 0.035 µM	11 ± 3%	Ki [16]: 2.09 µM; Tb (° C.) ([3]; 10 mg/kg ip): 35.7 ± 0.7 °C; Ki [17]: 6.61 µM; inhibition at 10 µM ([14]; read-out: A3AR % inhibition or Ki): 47 ± 2%; selectivity ratio [15]: 400; Ki [15]: 0.0252 ± 0.0028 µM; Ki [18]: 1.91 µM; inhibition at 10 µM [4]: 41 ± 6%; Activity (counts) ([6]; 10 mg/kg ip): 19.1 ± 5.3 counts; Ki [19]: 2.35 µM
O[C@@H]1[C@H](O)[C@@H]2C[C@@H]2[C@H]1n1cnc2c(NC(C3CC3)C3CC3)nc(Cl)nc21 [MRS5474, reference compound]	–	–	–	–	–	–	–	–	average immobility times versus the control group of mice ([20]; 1 hour after administration): lower than the average immobility times exhibited by the control group of mice; average immobility times versus mice treated with fluoxetine ([20]; fluoxetine 10 mg/kg): approximately twice longer; initial amount present in simulated gastric fluid [21]: 51%
